Measurements taken from PubChem BioAssay (NCI).
Values joined by “and” are separate entries in the source; they are usually repeats but may differ in a detail not shown here. Identical values can stand only once.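 Results reflect a 48-hour exposure of cells in 96-well plates to compound at five concentrations. GI50 marks 50% less growth. TGI marks complete inhibition of growth.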

What was measured:
Test in all cases: NCI anticancer screen, dose series, 48 h
[1] = tested on: A498 renal
[2] = tested on: COLO 205 colon
[3] = tested on: HOP-62 NSCLC
[4] = tested on: HOP-92 NSCLC
[5] = tested on: NCI-H522 lung
[6] = tested on: OVCAR-8 ovarian
[7] = tested on: SN12C renal
[8] = tested on: SNB-19 CNS
[9] = tested on: U251 CNS
[10] = tested on: UO-31 renal

Row | Compound | TGI [1] | TGI [2] [µM] | TGI [3] | TGI [4] [µM] | TGI [5] [µM] | TGI [6] [µM] | TGI [7] | TGI [8] [µM] | TGI [9] [µM] | TGI [10] | GI50 [2] [µM] | GI50 [3] [µM] | GI50 [4] [µM] | GI50 [5] [µM] | GI50 [6] [µM] | GI50 [7] [µM] | GI50 [8] [µM] | GI50 [9] [µM] | GI50 [10] [µM] | GI50 [1] [µM]
1 | CCCCCCCC(=O)OC[n+]1cccc(-c2c(COC(=O)NC(C)C)c(COC(=O)NC(C)C)c3n2CCC3)c1 | > 89.4 µM | > 100 | > 100 µM | > 100 | > 100 | > 100 | > 100 µM | > 100 | > 100 | > 100 µM |  |  |  |  |  |  |  |  |  | 
2 | Nc1cccc(C(=O)/C=C/c2ccccc2O)c1 | > 100 µM | > 100 | > 100 µM | > 100 | > 100 | > 100 | > 100 µM | > 100 | > 100 | > 100 µM |  |  |  |  |  |  |  |  |  | 
3 | Cc1cccc(NC(=O)CSc2nnc(-c3ccc(N=Cc4ccc(Cl)cc4)cc3)o2)c1 |  | > 100 | > 100 µM |  | > 100 | > 100 | > 100 µM | > 100 | > 100 | > 100 µM |  |  |  |  |  |  |  |  |  | 
4 | O=C(Cc1csc2nc(-c3ccc(Br)cc3)cn12)N/N=C/c1ccccc1O |  | 23.1 | 14.9 µM | 14.6 | 27.2 | 12.4 | 16 µM | 25.4 | 15.1 | > 100 µM | 5.08 | 3.88 | 2.1 | 5.27 | 2.28 | 3.34 | 6.8 | 3.67 | 7.16 | 
5 | N#CC(C#N)=C/C=C/c1ccccc1[N+](=O)[O-] | > 10 µM | > 10 | > 10 µM | > 10 | > 10 | 3.75 | > 10 µM | > 10 | > 10 | > 10 µM |  |  |  |  |  |  |  |  |  | 
6 | Cc1cc2nc3c(C(OC4OC(CO)C(O)C(O)C4O)C(O)CO)nn(-c4ccc(F)cc4)c3nc2cc1C (stereo unspecified) | > 100 µM |  | > 100 µM |  | > 100 | > 100 | > 100 µM | > 100 | > 100 | > 100 µM |  |  |  |  |  |  |  |  |  | 
7 | c1ccc(-c2nc3ccccc3[nH]2)c(OCCCCCOc2ccccc2-c2nc3ccccc3[nH]2)c1 | 25.5 µM | 31.9 | 52.5 µM | 14.7 | 39.1 | 53 | 24.5 µM | 31.9 | 25.6 | 36 µM | 8.49 | 22.1 | 2.55 | 5.46 | 21.7 | 8.55 | 14.4 | 12.5 | 11 | 12.1
8 | COc1ccc2cc1Oc1ccc(cc1)CC1c3c(cc(OC)c4c3Oc3cc5c(cc3O4)CCNC5C2)CCN1C (stereo unspecified) | 3.7 µM and 3.02 µM | 3.41 | 5.06 µM and 2.95 µM | 6.76 | 3.27 | 3.2 | 3.89 µM and 3.3 µM | 4.32 | 3.2 | 30.7 µM and 3.13 µM |  | 1.59 |  |  |  | 1.82 |  | 1.68 | 1.67 | 1.64
9 | Cc1cn([C@H]2CN(O)C[C@@H](CO)O2)c(=O)[nH]c1=O | > 100 µM | > 100 | > 100 µM |  |  | > 100 | > 100 µM | > 100 | > 100 | > 100 µM |  |  |  |  |  |  |  |  |  | 
10 | COc1ccc(C2=NOC3=c4ccccc4=CSC3=C2c2ccccc2)cc1 | > 100 µM | > 100 | > 100 µM | 83.2 | > 100 | > 100 | 68.9 µM | > 100 | > 100 | > 100 µM | 48.7 | 17.3 | 23.6 | > 100 | 42.9 | 22 | 34.7 | 25.2 | 39.2 | 
11 | COc1ccccc1CNCCCN1C(=O)c2ccc3c4c(ccc(c24)C1=O)C(=O)N(CCCNCCCCN)C3=O | 2.55 µM | 0.263 | 2.1 µM | 1.65 | 0.367 | 0.933 |  | 2.58 | 0.731 | 9.92 µM | 0.125 | 0.546 | 0.4 | 0.182 | 0.244 |  | 0.51 | 0.206 | 1.95 | 0.972
12 | C=C(/C=C/C=C(\CO)CCC=C(C)C)[C@H]1CCC2([C@H](CCCO)/C(=C(/C)C=O)CC[C@]2(C)O)[C@H]1O (stereo partly specified) | > 100 µM | > 100 | > 100 µM | > 100 |  | > 100 |  | > 100 | > 100 |  |  |  |  |  |  |  |  |  |  | 
13 | O=C(CC/C(CC(=O)c1ccc(Cl)cc1)=N\O)Nc1cccc(Cl)c1 | > 100 µM | > 100 | > 100 µM |  |  | > 100 | > 100 µM | > 100 | > 100 | > 100 µM |  |  |  |  |  |  |  |  |  | 
14 | COc1ccc(-c2nc3sccn3c2/C=C/C(=O)c2cc(OC)c(OC)c(OC)c2)cc1 | 6.41 µM | 13 | > 25.7 µM | 4.59 | > 22.2 | > 21.8 | > 100 µM | > 100 | > 100 | > 25.5 µM | 2.82 | 2.53 | 0.4 | 4.16 | 3.03 | 3 | 3.32 | 3.04 | 2.12 | 2.52
15 | COc1ccc(/C(C#N)=C2/O/C(=N/N)C(c3ccc(OC)c(OC)c3)C2=O)cc1OC (stereo unspecified) |  |  |  | > 100 | > 100 |  | > 100 µM |  | > 100 | > 100 µM |  |  |  |  |  |  |  |  |  | 
16 | COc1ccc(C2C(C(=O)O)=C(COC(C)=O)Oc3cc4c(cc32)OCO4)c(OC)c1 (stereo unspecified) |  | > 100 | > 100 µM | > 100 |  | > 100 | > 100 µM | > 100 | > 100 | > 100 µM |  |  |  |  |  |  |  |  |  | 
17 | COC(=O)C1C(=O)NC2(C)CC1c1ccccc1O2 (stereo unspecified) | > 100 µM |  | > 10 µM | > 100 | > 100 | > 100 | > 100 µM | > 100 | > 100 | > 100 µM |  |  |  |  |  |  |  |  |  | 
